Measurements taken from paper PMC4935840, “Molecular basis of the remarkable species selectivity of an insecticidal sodium channel toxin from the African spider Augacephalus ezendami” (Scientific Reports, 2016).
Entries after “also recorded” stand apart in the source; their conditions may differ.

Assays:
[1] = tested on: American cockroaches (Periplaneta americana); details: at much higher doses; cited from earlier work
Source text: (§1) An ideal bioinsecticide would be specific for the targeted insect pest, without harming beneficial insects. Although most spiders are generalist predators that hunt many types of insect prey, some spider-venom peptides have been isolated that are specific to certain insect orders or even to certain species within an insect order. […] Another ex ...

[2] = tested on: German cockroaches (Blattella germanica); details: cited from earlier work
Source text: as §1

[3] = tested on: BgNaV1 over PaNaV1 channels; details: cited from earlier work
Source text: The selectivity of Ae1a for BgNaV1 over PaNaV1 channels is reminiscent of the selectivity reported for the insecticidal spider-venom peptide μ-DGTX-Dc1a (Dc1a) isolated from the American desert spider Diguetia canities. In order to explore the molecular basis of this species selectivity we examined the ability of Ae1a to inhibit the activity of a BgNaV1 channel containing two mutations that were previously reported to determine sensitivity to Dc1a[18].

[4] = tested on: sheep blowflies (Lucilia cuprina); experiment: Insecticidal activity by injection into sheep blowflies (PD50); type: in vivo
Protocol: (§2) Figure 3 Insecticidal effects of Ae1a. (A) rAe1a was injected into blowflies (Lucilia cuprina) and paralytic effects were measured 0.5 and 1 h after injection. (B) rAe1a was injected into fruit flies (Drosophila melanogaster) and paralytic and lethal effects were measured at 3 h and 24 h post injection. (C) rAe1a and Hv1a were injected into the triatomine bug Rhodnius prolixus and lethality was measured 24 h after injection. PD50 and LD50 values were calculated as described previously.
rAe1a was dissolved in insect saline[45] and injected into the ventro-lateral thoracic region of adult sheep blowflies (L. cuprina; mass 26.8–29.7 mg) as described previously. A maximum of 2 μl was injected per fly using a 1.0 ml Terumo Insulin syringe with 29-gauge needle fitted to an Arnold hand micro-applicator (Burkard Manufacturing Co. Ltd., Rickmansworth, England). After injection, flies were individually housed in 2-ml tubes and paralytic effects determined after 0.5, 1 and 24 h. A total of three assays were performed, and for each assay nine doses of rAe1a (n = 10 flies per dose) and the appropriate control (insect saline; n = 20 flies each) were used. PD50 values were calculated as described.

[5] = tested on: fruit flies (Drosophila melanogaster); experiment: Insecticidal activity by injection into fruit flies (PD50, LD50); type: in vivo; details: D. melanogaster
Protocol: as §2
The effect on rAe1a on fruit flies was determined using a previously described method. rAe1a was dissolved in 100 mM ammonium acetate buffer (pH 6.1) and injected into the lateral thoracic region of adult female D. melanogaster using a glass capillary connected with silicone tubing to a 10 ml plastic syringe. The injection volume per fruit fly was calibrated to be 50 nl for each glass capillary. After injection, fruit flies were housed in 68-ml plastic tubes (containing a cotton piece soaked in 0.5% sucrose solution) in groups of 10 (all receiving the same treatment) and monitored for signs of paralysis or lethality at 3 and 24 h post-injection.

[6] = tested on: cotton bollworms (H. armigera larvae); experiment: Injection into cotton bollworm larvae; type: in vivo, Helicoverpa armigera
Protocol: We examined the effect of rAe1a on cotton bollworms (i.e., larvae of H. armigera) supplied by AgBiTech (Glenvale, QLD, Australia). […] Larvae were kept on artificial diet (AgBiTech) in standard 6-well plates and their mass was measured 24, 48 and 72 h after the injection.

[7] = tested on: triatomine bug Rhodnius prolixus; experiment: Toxicity by injection into triatomine bugs; type: in vivo; details: for activity against R. prolixus (in words): injection
Protocol: as §2
Toxicity against R. prolixus was measured using the method described by Luna et al.[49] with some modifications. Microinjection needles, made by pulling borosilicate glass capillaries with a needle puller (Narishige, PC-10, Japan), were fitted onto a Nanoject II auto injector (Drummond Scientific, Broomall, PA, USA). Ae1a, Hv1a, or PBS (n = 7–10 per dose, 138 nl volume) were injected into the thorax of second instar R. prolixus nymphs (average mass 1.4 mg) via articulation of prothoracic coxa. Synthetic Hv1a was kindly supplied by Vestaron Corporation (Kalamazoo, MI, USA). Three separate sets of experiments were performed for each compound. After injection, bugs were transferred to plastic cages and stored at 26 °C with 50% relative humidity. All bugs were checked at 24 h post-injection for signs of paralysis or lethality.

[8] = tested on: diamondback moth Plutella xylostella; experiment: Injection into larvae of the diamondback moth (data not shown); type: in vivo; details: injected into larvae of Plutella xylostella
BgNaV1 = experiment: Two-electrode voltage-clamp of BgNaV1 in Xenopus oocytes; type: cell-based, Blattella germanica
Protocol: (§3) Figure 4 Effect of rAe1a on BgNav1 and hNaV1.5. Left panels: Representative traces showing the effect of rAe1a (200 nM) on sodium currents mediated by (A) BgNaV1, (C) mutant BgNaV1 (H805Y/D812E), and (E) hNaV1.5 heterologously expressed in Xenopus oocytes. Currents were evoked by a depolarization to −15 mV, with black and red traces corresponding to the current before and after toxin application, respectively. Right panels: Effect of 200 nM rAe1a on normalized conductance-voltage (G–V) relationships (G/Gmax) and steady-state inactivation (SSI) relationships (I/Imax) for (B) BgNaV1, (D) mutant BgNaV1, and (F) hNaV1.5. […]
(§4) cRNA encoding BgNaV1 from Blattella germanica[50] and hNaV1.5 (Origene, Rockville, MD, USA) was synthesized using T7 polymerase (mMessage mMachine kit, Life Technologies, USA) after linearizing the fully-sequenced DNA. […] Oocytes were incubated at 17 °C in 96 mM NaCl, 2 mM KCl, 5 mM HEPES, 1 mM MgCl2 and 1.8 mM CaCl2, 50 μg/ml gentamycin, pH 7.6 with NaOH, and currents were measured 1–2 days after cRNA injection using the two-electrode voltage-clamp recording technique (OC-725C, Warner Instruments, Hamden, CT, USA) with a 150-μl recording chamber. […] After addition of rAe1a to the recording chamber, equilibration between toxin and channel was monitored using weak depolarizations elicited at 5-s intervals. […]

[9] = tested on: mutant BgNaV1 (H805Y/D812E); experiment: Two-electrode voltage-clamp of mutant BgNaV1 (H805Y/D812E) in Xenopus oocytes; type: cell-based, Blattella germanica; details: BgNaV1 H805Y/D812E versus wild-type BgNaV1
Protocol: as §3, §4

hNaV1.5 = experiment: Two-electrode voltage-clamp of hNaV1.5 in Xenopus oocytes; type: cell-based; details: hNaV1.5 + human β1 in Xenopus oocytes, 200 nM, n = 3–5
Protocol: as §3, §4

[10] = tested on: NaV channel currents in dorsal unpaired median (DUM) neurons (PaNaV1); experiment: Whole-cell patch-clamp of NaV channel currents in DUM neurons; type: cell-based, Periplaneta americana; details: P. americana DUM neurons
Protocol: Figure 5 Effect of rAe1a on NaV channel currents in P. americana DUM neurons. (A) Representative traces showing the effect of 1 μM rAe1a on INa mediated by PaNaV1 in P. americana DUM neurons. Currents were evoked by depolarizations to −10 mV, from a holding potential of −90 mV (panel B), with black and red traces corresponding to the current before, and 5 min after, toxin application, respectively. (C) Time course of rAe1a actions on PaNaV1. Peak INa were recorded at a rate of 0.1 Hz before (black circles), and for 5 min during, application of 1 μM rAe1a (red circles) and normalized against maximal peak INa (−1/Imax; n = 3). (D) GNa-V relationships in P. americana DUM neurons. A voltage protocol with depolarisation steps from −90 mV to +40 mV in 10 mV increments (lower panel B) was used to generate families of INa. The normalized conductance-voltage (GNa-V) relationship (G/Gmax) is shown before (black circles) and after (red circles) a 5 min perfusion with 1 μM rAe1a (n = 4). […]
Ionic currents were recorded from DUM neurons in voltage-clamp mode using the whole-cell patch-clamp technique employing version 10.2 of the pCLAMP data acquisition system (Molecular Devices, Sunnyvale, CA, USA). […] Liquid junction potentials were calculated using JPCALC, and all data were compensated for these values. […] Peak current amplitude was analysed offline using AxoGraph X v1.5.3 (Molecular Devices). […]

[11] = tested on: fruit fly Drosophila melanogaster; experiment: Screen of spider venoms / native peptide by injection into fruit flies; type: in vivo; details: injected into D. melanogaster
Protocol: We used the fruit fly Drosophila melanogaster to rapidly screen spider venoms for insecticidal activity. […] Microinjection of venoms or toxins into D. melanogaster has the advantage that it requires only small volumes (50 nl per fly), which enables the study of scarce venoms from small venomous animals. Given the worldwide availability of Drosophila and the general sensitivity of flies towards spider toxins, this assay provides a convenient method for determining the insecticidal potency of venom compounds. However, as discussed below, it should not be used in isolation but rather as part of a taxonomically diverse screening protocol that aims to uncover potentially complex phyletic specificities.

honeybees = details: cited from earlier work
Source text: as §1

[12] = tested on: wide range of insect pest species; details: cited from earlier work
Source text: as §1

[13] = tested on: insect voltage-gated calcium channels; details: cited from earlier work

| Substance | adverse effects (in words) [1] | lethality (in words) [2] | selectivity for BgNaV1 over PaNaV1 (in words) [3] | paralysis (in words) ([4]; L. cuprina) | PD50 (summary value) ([4]; sheep blowflies, approximate value in discussion) | paralysis / lethality (in words) [5] | adverse effects / resistance (in words) [6] | activity against R. prolixus (in words) [7] | lethality (in words) [8] | inhibition of BgNaV1 currents (in words) (BgNaV1) | sensitivity of mutant channel to toxin (in words) [9] | effect on hNaV1.5 currents and gating (in words) (hNaV1.5) | effect on NaV channel currents in DUM neurons (in words) [10] | lethality / toxicity (in words) [11] | LD50 ([7]; R. prolixus second instar nymphs, injection into thorax, 24 h after injection, n = 7–10 per dose, three experiments) [pmol/g] | activity against honeybees (in words) (honeybees) | lethality (in words) [12] | calcium channel inhibition (in words) [13] |
| --- | --- | --- | --- | --- | --- | --- | --- | --- | --- | --- | --- | --- | --- | --- | --- | --- | --- | --- |
| μ-DGTX-Dc1a | does not induce adverse effects | lethal | selectivity | – | – | – | – | – | – | – | – | – | – | – | – | – | – | – |
| μ-theraphotoxin-Ae1a | – | – | – | rapid but reversible paralysis; also recorded: reverses within 24 h | ~ 950 pmol/g | lethal; also recorded: irreversible paralysis leading to death; also recorded: highly sensitive | no adverse effects; also recorded: resistant | inactive | lethal | potently inhibits | much less sensitive | completely inactive | failed to significantly affect sodium currents; also recorded: no significant affect | lethal | – | – | – | – |
| ω-hexatoxin-Hv1a | – | – | – | – | – | – | – | highly susceptible | – | – | – | – | – | – | 147 ± 37 | inactive | lethal | selective inhibitor |
